Assay results taken from publication PMC7468206, “Molecular Deceleration Regulates Toxicant Release to Prevent Cell Damage in Pseudomonas putida S16 (DSM 28022)” (mBio, 2020).

Molecular target: T1, full-length (FL) wild-type (WT) NicA2 (Pseudomonas putida, UniProt F8G0P2)
T1 construct: full length, C-terminal 6xHis (pET28a), E. coli BL21(DE3); FAD-containing; the assays say only WT NicA2, full length inferred from cloning section
T1 sequence (F8G0P2 1-482): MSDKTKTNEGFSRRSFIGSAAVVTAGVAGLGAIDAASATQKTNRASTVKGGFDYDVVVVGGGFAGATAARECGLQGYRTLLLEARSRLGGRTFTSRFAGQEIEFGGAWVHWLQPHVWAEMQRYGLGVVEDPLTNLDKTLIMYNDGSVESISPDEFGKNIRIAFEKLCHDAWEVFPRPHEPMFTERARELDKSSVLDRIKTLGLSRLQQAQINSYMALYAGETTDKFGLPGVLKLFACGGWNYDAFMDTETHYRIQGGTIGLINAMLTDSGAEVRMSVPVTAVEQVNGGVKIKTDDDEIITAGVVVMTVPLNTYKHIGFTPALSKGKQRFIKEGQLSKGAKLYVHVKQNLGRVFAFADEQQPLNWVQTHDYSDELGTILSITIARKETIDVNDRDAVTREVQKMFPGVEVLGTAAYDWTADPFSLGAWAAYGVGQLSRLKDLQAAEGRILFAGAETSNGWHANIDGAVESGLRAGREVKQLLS
Assay: Ni-NTA removal of enzyme, GC of free versus total product
Format: binding
Conditions: 25 °C, 1.5 h, equimolar nicotine; product formed in situ; construct (full length or 21-482) not stated

`CNCCCC(=O)c1cccnc1` [pseudooxynicotine] was tested, and the “Ni-NTA removal of enzyme, GC of free versus total product” value was “only one-fourth of the PN produced in the reaction system was released to solution by NicA2”.
